Key:
CLC-0 [1] = biological target: CLC-0 (Torpedo marmorata, UniProt P21564, E166G); assay: cell-based
CLC-0 [2] = biological target: CLC-0 (Torpedo marmorata, UniProt P21564, E166A); assay: cell-based
CLC-0 (Torpedo marmorata, UniProt P21564, E166A), sequence (P21564 whole entry E166A): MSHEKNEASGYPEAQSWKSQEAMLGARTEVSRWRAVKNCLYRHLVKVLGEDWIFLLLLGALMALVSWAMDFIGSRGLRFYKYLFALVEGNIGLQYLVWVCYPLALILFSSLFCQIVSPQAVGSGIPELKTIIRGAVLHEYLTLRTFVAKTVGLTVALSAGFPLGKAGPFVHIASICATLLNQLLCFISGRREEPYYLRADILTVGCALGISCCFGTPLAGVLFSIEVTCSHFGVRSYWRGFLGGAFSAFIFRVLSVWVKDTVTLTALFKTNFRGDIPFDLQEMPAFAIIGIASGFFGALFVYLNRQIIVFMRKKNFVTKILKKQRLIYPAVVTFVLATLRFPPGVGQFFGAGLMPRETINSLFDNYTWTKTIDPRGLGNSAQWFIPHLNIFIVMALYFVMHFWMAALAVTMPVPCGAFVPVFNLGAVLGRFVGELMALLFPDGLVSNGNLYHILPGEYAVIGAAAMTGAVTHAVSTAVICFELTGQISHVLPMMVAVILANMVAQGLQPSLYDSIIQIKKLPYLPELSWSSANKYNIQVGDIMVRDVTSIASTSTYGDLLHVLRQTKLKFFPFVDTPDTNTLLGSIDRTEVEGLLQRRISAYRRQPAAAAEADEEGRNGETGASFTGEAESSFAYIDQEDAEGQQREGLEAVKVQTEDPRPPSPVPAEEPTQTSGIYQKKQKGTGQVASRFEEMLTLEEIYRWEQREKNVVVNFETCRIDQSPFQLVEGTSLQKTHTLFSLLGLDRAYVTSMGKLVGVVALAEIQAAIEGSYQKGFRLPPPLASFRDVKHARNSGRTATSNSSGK

CLC-0 (Torpedo marmorata, UniProt P21564, E166G), sequence (P21564 whole entry E166G): as the sequence (P21564 whole entry E166A) above, with A166G counted along it

CCCCCCCC(=O)O [OA, octanoate]
IC50 (CLC-0 [1]): 160 ± 10 µM | IC50 (CLC-0 [2]): 120 ± 20 µM

Reference: article PMC2606939 (The Journal of General Physiology, 2009)
